# Read-outs that look alike come from different tables or passages of the source.
# How the values were obtained:
# [1] = biological target: T1, human Glycine N-Methyltransferase (GNMT) (Homo sapiens, UniProt Q14749); experiment: HTRF methyltransferase selectivity assay, human GNMT; assay type: biochemical; conditions: for Ligand Efficiency (LE) Human (hMtase): estimated from IC50 values; for inhibition at 100 µM: read-out: Percent inhibition at 100 μM, Human
# T1 construct: purchased MyBioSource MBS636160
# T1 sequence (Q14749 1-295): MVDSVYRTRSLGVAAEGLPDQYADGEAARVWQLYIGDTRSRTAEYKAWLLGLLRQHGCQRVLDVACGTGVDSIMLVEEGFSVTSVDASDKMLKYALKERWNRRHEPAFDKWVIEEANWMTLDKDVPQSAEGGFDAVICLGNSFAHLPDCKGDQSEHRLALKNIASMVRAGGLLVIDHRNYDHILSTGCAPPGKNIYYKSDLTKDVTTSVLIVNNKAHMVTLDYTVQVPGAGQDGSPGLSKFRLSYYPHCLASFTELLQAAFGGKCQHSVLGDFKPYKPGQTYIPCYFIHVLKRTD
# [2] = biological target: SARS-CoV-2 nsp16/nsp10 (Severe acute respiratory syndrome coronavirus 2, UniProt P0DTD1); experiment: biochemical; conditions: for Ligand Efficiency (LE) nsp16: estimated from IC50 values; for inhibition at 100 µM: read-out: Percent inhibition at 100 μM, nsp16
# [3] = Cytotoxicity, neutral red uptake, HepG2; assay type: cell-based; conditions: human
# Description: (§1) A549 human non-small cell lung cancer cell line, HepG2 hepatocarcinoma cells, and BALB/c 3T3 clone A31 murine fibroblast cell line for the study were obtained from ATCC (American Type Culture Collection, Manassas, VA, USA). Cells were propagated in DMEM medium (Sigma, D6046, Irvin, UK) supplemented with 1% penicillin (100 U/mL)–streptomycin (100 μg/mL) and 10% foetal bovine serum (Sigma, F7524, St Louis, MO, USA) in case of A549 and HepG2 or 10% calf serum (Sigma, C8056, St Louis, MO, USA) in case of BALB/c 3T3. All cultivations were performed in a humidified 5% CO2 atmosphere at 37 °C.
# (§2) The cytotoxicity of the compounds was tested in A549, HepG2, and BALB/c3T3 cell lines by neutral red (NR) uptake assay. A549 and BALB/c3T3 cells were seeded in 96-well plates at a density of 8 × 10^3 cells per well, HepG2 at density 1.2 × 10^4 cells per well. After 24 h incubation, test compounds in a concentration range of 0.8 to 200 μM were added. Cultivation in the presence of test compounds was done for 48 h. Afterwards, the plates were washed with phosphate-buffered saline (PBS) (Sigma, D8537, Irvin, UK), and 25 µg/mL NR solution (Sigma, N2889, Irvin, UK) was added. In case of BALB/c 3T3 cells, NR was diluted in 5% foetal calf serum containing media, while for A549 and HepG2 cells, it was diluted in 5% foetal bovine serum containing media. After 3 h incubation, the plate was washed with PBS, and the NR taken up by viable cells was extracted using desorbing fixative (50% ethanol/1% acetic acid/49% water). Absorbance at 540 nm was measured using a Tecan M200 Infinite Pro microplate reader. Cytotoxicity was expressed as a concentration-dependent reduction of the uptake of NR, compared to the untreated controls, and the IC50 value for each compound was calculated.
# [4] = biological target: SARS-CoV-2 nsp14 (Severe acute respiratory syndrome coronavirus 2, UniProt P0DTD1); experiment: biochemical; conditions: for Ligand Efficiency (LE) nsp14: estimated from IC50 values; for inhibition at 100 µM: read-out: Percent inhibition at 100 μM, nsp14
# [5] = tested on: A549 cell culture; experiment: Cell permeability testing (LC/MS/MS of cell lysates and media); assay type: in vitro ADME, human; conditions: for Cell Permeability, 2 × 10^4 Cells/L / Cell Permeability, 4 × 10^4 Cells/L: 24 h; for cell permeability (in words): A549
# Description: To test cell permeability, each compound was added to A549 cell culture at a concentration of 20 μM and incubated for 24 h. Cells were seeded in 6-well plates at a density of 2 × 10^4 and 4 × 10^4 cells per well at concentrations 1 × 10^4 and 2 × 10^4 cells/mL media for the testing of each compound, each in three replicates. After the incubation, the cell cultivation media and cell lysates were collected. After the removal of media, cells were washed with ice-cold PBS (Sigma, D1408, Irvin, UK) and lysed for 30 min in 500 µL per well ice-cold RIPA buffer (Sigma, R0278, St Louis, MO, USA). Samples were stored at −80 °C until analysis.
# The quantitative determination of tested compounds in cell lysates and culture media was performed on a Waters MICROMASS QUATTRO microTM tandem mass spectrometer combined with Acquity UPLC system. Acquity UPLC BEH C8 (2.1 × 50 mm × 1.7 μm) column was used at a flow rate of 0.25 mL/min. The column oven was set at 30 °C, and the sample injection volume was 5 μL. The mobile phase consisted of a combination of A (0.1% formic acid in water) and B (acetonitrile). The gradient elution program from 5% B to 98% B in 5 min was applied for analysis. Tandem mass spectrometer in positive electrospray mode was used for quantification. The TargetLynx software was applied to process LC/MS/MS data. Samples for LC/MS/MS analysis were prepared as follows: 200 μL of acetonitrile/methanol mixture (3:1 v/v) was add to 200 μL of each cell lysate and culture media sample. Then, the samples were centrifuged (10,000 rpm, 10 min), and the supernatants (300 μL) were removed from each sample and placed in vials for LC/MS/MS analysis. Calibration curves for all analytes were produced by analysis of standard solutions over a concentration range of 0.2 to 20 μM.
# [6] = Cytotoxicity, neutral red uptake, 3T3; assay type: cell-based, murine; conditions: mouse
# Description: as §1, §2
# [7] = Cytotoxicity, neutral red uptake, A549; assay type: cell-based; conditions: human
# Description: as §1, §2
# [8] = tested on: 3T3, A549, and HepG2 cell lines; experiment: Cytotoxicity, summary statements over the three cell lines; assay type: cell-based; conditions: 3T3, A549, HepG2
# Description: as §2
# [9] = HTRF, SAM 10 µM, glycine 5 mM, read-out: IC50 Human (hMtase, human glycine N-methyltransferase)
# [10] = HTRF, nsp16/nsp10, SAM 10 µM, m7GpppA-RNA, read-out: IC50 nsp16
# [11] = HTRF, SAM 10 µM, GpppG 4 µM, read-out: IC50 nsp14
# [12] = 48 h, neutral red uptake, read-out: Cytotoxicity (CC50) HepG2
# [13] = A549, compound 20 μM, LOQ 0.2 μM or 1%
# [14] = 48 h, neutral red uptake, read-out: Cytotoxicity (CC50) 3T3
# [15] = 48 h, neutral red uptake, read-out: Cytotoxicity (CC50) A549
structure (smiles),measurement,setting,value
Cc1ccc(S(=O)(=O)OC[C@H]2O[C@@H](n3cnc4c(N)ncnc43)[C@H](O)[C@@H]2O)cc1 [ZINC3861767],IC50,[1]; [9],2.8 µM
same,Ligand Efficiency (LE) Human (hMtase),[1],0.26 kcal/mol
same,IC50,[2]; [10],1.14 µM
same,Ligand Efficiency (LE) nsp16,[2],0.28 kcal/mol
same,CC50 at 48 h,[3],> 200 µM
same,IC50,[4]; [11],1.5 µM
same,Ligand Efficiency (LE) nsp14,[4],0.27 kcal/mol
same,"Cell Permeability, 2 × 10^4 Cells/L","[5]; human, 20 μM",2.2%
same,"Cell Permeability, 4 × 10^4 Cells/L","[5]; human, 20 μM",0.5%
same,CC50 at 48 h,[6],> 200 µM
same,CC50 at 48 h,[7],> 200 µM
O=C(CCCn1cncn1)N1CCCC(c2nc3ccccc3s2)C1 (stereo not shown) [ZINC23398144],IC50,[1],315 ± 5 µM
same,Ligand Efficiency (LE) Human (hMtase),[1],0.20 kcal/mol
same,inhibition at 100 µM,[1],21 ± 2%
same,IC50,[2],197 ± 9 µM
same,Ligand Efficiency (LE) nsp16,[2],0.21 kcal/mol
same,inhibition at 100 µM,[2],39 ± 7%
same,CC50 at 48 h,[3]; [12],> 100 µM
same,IC50,[4],77 ± 3 µM
same,Ligand Efficiency (LE) nsp14,[4],0.23 kcal/mol
same,inhibition at 100 µM,[4],57 ± 8%
same,cell permeability (in words),[5],low level of cell permeability
same,"Cell Permeability, 2 × 10^4 Cells/L",[5]; [13],0.7%
same,"Cell Permeability, 4 × 10^4 Cells/L",[5]; [13],0.6%
same,CC50 at 48 h,[6]; [14],> 100 µM
same,CC50 at 48 h,[7]; [15],> 100 µM
same,cytotoxicity (in words),[8],no measurable cytotoxicity
O=C(Cc1csc(SCC(=O)c2ccccc2)n1)Nc1cccc2nsnc12 [ZINC38661771],IC50,[1],58 ± 3 µM
same,Ligand Efficiency (LE) Human (hMtase),[1],0.21 kcal/mol
same,inhibition at 100 µM,[1],63 ± 5%
same,IC50,[2],51 ± 2 µM
same,Ligand Efficiency (LE) nsp16,[2],0.21 kcal/mol
same,inhibition at 100 µM,[2],69 ± 8%
same,CC50 at 48 h,[3]; [12],93.8 µM
same,IC50,[4],118 ± 4 µM
same,Ligand Efficiency (LE) nsp14,[4],0.19 kcal/mol
same,inhibition at 100 µM,[4],58 ± 7%
same,cell permeability (in words),[5],low level of cell permeability
same,"Cell Permeability, 2 × 10^4 Cells/L",[5]; [13],<LOQ
same,"Cell Permeability, 4 × 10^4 Cells/L",[5]; [13],<LOQ
same,CC50 at 48 h,[6]; [14],116 µM
same,CC50 at 48 h,[7]; [15],97 µM
same,concentration at which cytotoxicity was shown,[8],≈ 100 μM
CSC[C@H]1O[C@@H](n2cnc3c(N)ncnc32)[C@H](O)[C@@H]1O [ZINC4228245],IC50,[1]; [9],1.8 µM
same,Ligand Efficiency (LE) Human (hMtase),[1],0.39 kcal/mol
same,IC50,[2],1.02 µM
same,Ligand Efficiency (LE) nsp16,[2],0.41 kcal/mol
same,CC50 at 48 h,[3],> 200 µM
same,IC50,[4]; [11],1.4 µM
same,Ligand Efficiency (LE) nsp14,[4],0.40 kcal/mol
same,"Cell Permeability, 2 × 10^4 Cells/L","[5]; human, 20 μM",0.7%
same,"Cell Permeability, 4 × 10^4 Cells/L","[5]; human, 20 μM",0.8%
same,CC50 at 48 h,[6],> 200 µM
same,CC50 at 48 h,[7],> 200 µM
"Nc1ncnc2c1ncn2[C@@H]1O[C@H](C[C@@H](N)CC[C@H](N)C(=O)O)[C@@H](O)[C@H]1O [Sinefungin, reference compound]",CC50 at 48 h,[3]; [12],> 100 µM
same,"Cell Permeability, 2 × 10^4 Cells/L",[5]; [13],<LOD
same,"Cell Permeability, 4 × 10^4 Cells/L",[5]; [13],<LOD
same,CC50 at 48 h,[6]; [14],99.2 µM
same,CC50 at 48 h,[7]; [15],72.9 µM
O=C(Cn1c(=O)[nH]c2c(-c3ccccc3)c[nH]c2c1=O)NCc1cccnc1 [ZINC33037945],IC50,[1],125 ± 6 µM
same,Ligand Efficiency (LE) Human (hMtase),[1],0.19 kcal/mol
same,inhibition at 100 µM,[1],53 ± 8%
same,IC50 nsp16,"[2]; HTRF, nsp16/nsp10, SAM 10 µM, m7GpppA-RNA",inactive
same,inhibition at 100 µM,[2],-8 ± 6%
same,CC50 at 48 h,[3]; [12],> 100 µM
same,IC50,[4],106 ± 5 µM
same,Ligand Efficiency (LE) nsp14,[4],0.19 kcal/mol
same,inhibition at 100 µM,[4],56 ± 5%
same,cell permeability (in words),[5],good cell permeability
same,"Cell Permeability, 2 × 10^4 Cells/L",[5]; [13],17.9%
same,"Cell Permeability, 4 × 10^4 Cells/L",[5]; [13],30.8%
same,CC50 at 48 h,[6]; [14],> 100 µM
same,CC50 at 48 h,[7]; [15],> 100 µM
same,cytotoxicity (in words),[8],no measurable cytotoxicity
CCNC(=O)NCCSC[C@H]1O[C@@H](n2cnc3c(N)ncnc32)[C@H](O)[C@@H]1O [ZINC473112262],IC50,[1]; [9],5.8 µM
same,Ligand Efficiency (LE) Human (hMtase),[1],0.26 kcal/mol
same,IC50,[2]; [10],2.46 µM
same,Ligand Efficiency (LE) nsp16,[2],0.28 kcal/mol
same,CC50 at 48 h,[3],> 100 µM
same,IC50,[4]; [11],3.1 µM
same,Ligand Efficiency (LE) nsp14,[4],0.28 kcal/mol
same,"Cell Permeability, 2 × 10^4 Cells/L","[5]; human, 20 μM",0.3%
same,"Cell Permeability, 4 × 10^4 Cells/L","[5]; human, 20 μM",0.3%
same,CC50 at 48 h,[6],> 100 µM
same,CC50 at 48 h,[7],> 100 µM
